Measurements taken from patent publication US20100137449A1, “SUBSTITUTED 1,3-CYCLOPENTADIONE MULTI-TARGET PROTEIN KINASE MODULATORS OF CANCER, ANGIOGENESIS AND THE INFLAMMATORY PATHWAYS ASSOCIATED THEREWITH” (METAPROTEOMICS, LLC, priority 2007, published 2010).

How the values were obtained:
Test in all cases: KinaseProfiler Assay
EGFR(T790M)(h) = EGFR(T790M)(h) (Homo sapiens, UniProt P00533, T790M)
EphB3(h) = target: T1, EphB3(h) (Homo sapiens, UniProt P54753)
T1 sequence (P54753 34-998): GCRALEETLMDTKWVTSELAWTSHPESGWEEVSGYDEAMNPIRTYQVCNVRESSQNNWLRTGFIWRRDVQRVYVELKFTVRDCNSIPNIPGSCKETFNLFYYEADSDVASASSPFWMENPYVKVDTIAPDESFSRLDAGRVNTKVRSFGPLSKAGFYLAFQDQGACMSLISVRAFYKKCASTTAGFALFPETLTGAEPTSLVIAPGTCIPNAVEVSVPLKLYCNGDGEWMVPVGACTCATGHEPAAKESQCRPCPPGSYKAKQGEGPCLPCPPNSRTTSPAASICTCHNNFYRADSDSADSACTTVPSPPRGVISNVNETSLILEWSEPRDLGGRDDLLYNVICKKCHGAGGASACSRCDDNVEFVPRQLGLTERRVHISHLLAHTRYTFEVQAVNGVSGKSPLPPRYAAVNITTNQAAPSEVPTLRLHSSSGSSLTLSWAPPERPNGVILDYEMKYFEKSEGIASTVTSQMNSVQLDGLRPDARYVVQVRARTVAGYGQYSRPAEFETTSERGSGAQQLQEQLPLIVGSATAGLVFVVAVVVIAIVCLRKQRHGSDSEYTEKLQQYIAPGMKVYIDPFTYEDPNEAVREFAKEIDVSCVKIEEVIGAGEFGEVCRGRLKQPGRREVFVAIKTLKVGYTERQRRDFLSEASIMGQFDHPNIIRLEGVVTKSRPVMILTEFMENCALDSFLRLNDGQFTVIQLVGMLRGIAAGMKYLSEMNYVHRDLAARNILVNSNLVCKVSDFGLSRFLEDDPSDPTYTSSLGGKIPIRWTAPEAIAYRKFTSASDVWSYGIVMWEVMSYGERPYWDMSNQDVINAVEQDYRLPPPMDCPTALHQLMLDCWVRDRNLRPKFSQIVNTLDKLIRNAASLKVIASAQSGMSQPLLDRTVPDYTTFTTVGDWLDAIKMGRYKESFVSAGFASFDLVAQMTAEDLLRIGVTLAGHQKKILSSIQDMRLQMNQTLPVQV

Fer(h) = Fer(h) (Homo sapiens, UniProt P16591)
Flt3(h) = target: T2, Flt3(h) (Homo sapiens, UniProt P36888)
T2 sequence (P36888 27-993): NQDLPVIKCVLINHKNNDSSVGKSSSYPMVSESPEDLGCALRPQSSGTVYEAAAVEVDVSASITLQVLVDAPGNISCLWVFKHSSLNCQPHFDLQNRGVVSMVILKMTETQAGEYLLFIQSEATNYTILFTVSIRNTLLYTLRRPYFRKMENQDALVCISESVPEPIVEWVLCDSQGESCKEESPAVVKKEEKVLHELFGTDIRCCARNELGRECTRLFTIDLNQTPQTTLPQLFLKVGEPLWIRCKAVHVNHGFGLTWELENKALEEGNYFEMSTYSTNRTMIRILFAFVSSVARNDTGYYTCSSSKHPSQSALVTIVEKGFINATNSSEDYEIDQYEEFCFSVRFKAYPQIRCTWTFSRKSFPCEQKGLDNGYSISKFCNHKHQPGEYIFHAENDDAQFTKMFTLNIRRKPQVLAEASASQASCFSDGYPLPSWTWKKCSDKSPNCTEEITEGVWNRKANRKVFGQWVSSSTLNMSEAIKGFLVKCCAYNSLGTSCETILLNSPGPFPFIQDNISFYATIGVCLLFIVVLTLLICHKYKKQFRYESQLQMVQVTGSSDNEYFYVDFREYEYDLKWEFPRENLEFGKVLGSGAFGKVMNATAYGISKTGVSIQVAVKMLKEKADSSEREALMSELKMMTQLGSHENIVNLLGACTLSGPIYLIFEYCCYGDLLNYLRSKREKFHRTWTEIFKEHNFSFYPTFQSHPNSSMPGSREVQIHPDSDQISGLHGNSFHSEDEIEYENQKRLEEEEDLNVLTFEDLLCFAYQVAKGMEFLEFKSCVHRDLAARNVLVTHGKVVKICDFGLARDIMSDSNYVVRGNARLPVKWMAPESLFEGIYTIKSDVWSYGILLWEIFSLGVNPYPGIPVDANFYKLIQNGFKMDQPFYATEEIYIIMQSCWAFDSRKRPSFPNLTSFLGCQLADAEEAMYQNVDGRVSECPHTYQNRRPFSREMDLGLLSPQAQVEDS

Flt4(h) = Flt4(h) (Homo sapiens, UniProt P35916)
Fms(h) = Fms(h) (Homo sapiens, UniProt P07333)
JNK3(h) = JNK3(h) (Homo sapiens, UniProt P53779)
SRPK2(h) = SRPK2(h) (Homo sapiens, UniProt P78362)
SRPK2(h), sequence (P78362 whole entry): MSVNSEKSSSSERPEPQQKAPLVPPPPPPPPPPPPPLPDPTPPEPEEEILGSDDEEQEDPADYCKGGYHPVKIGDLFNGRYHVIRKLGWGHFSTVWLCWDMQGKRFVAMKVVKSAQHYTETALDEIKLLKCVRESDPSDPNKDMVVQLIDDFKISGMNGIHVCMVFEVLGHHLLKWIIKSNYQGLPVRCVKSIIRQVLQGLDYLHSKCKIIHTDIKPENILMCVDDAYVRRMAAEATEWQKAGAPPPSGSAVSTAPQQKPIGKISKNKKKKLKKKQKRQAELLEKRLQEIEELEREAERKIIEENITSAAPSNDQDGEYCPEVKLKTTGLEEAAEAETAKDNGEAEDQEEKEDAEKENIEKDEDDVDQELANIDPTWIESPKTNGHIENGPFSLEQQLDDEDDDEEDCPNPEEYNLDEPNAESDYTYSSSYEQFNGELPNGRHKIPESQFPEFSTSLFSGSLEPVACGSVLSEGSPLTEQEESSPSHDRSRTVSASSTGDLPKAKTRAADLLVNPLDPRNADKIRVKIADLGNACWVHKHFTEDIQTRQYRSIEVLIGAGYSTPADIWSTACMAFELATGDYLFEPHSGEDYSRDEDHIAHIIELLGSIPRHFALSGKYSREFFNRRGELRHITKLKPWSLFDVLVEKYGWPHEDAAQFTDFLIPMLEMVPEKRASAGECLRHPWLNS

JNK3(h), sequence (P53779 whole entry): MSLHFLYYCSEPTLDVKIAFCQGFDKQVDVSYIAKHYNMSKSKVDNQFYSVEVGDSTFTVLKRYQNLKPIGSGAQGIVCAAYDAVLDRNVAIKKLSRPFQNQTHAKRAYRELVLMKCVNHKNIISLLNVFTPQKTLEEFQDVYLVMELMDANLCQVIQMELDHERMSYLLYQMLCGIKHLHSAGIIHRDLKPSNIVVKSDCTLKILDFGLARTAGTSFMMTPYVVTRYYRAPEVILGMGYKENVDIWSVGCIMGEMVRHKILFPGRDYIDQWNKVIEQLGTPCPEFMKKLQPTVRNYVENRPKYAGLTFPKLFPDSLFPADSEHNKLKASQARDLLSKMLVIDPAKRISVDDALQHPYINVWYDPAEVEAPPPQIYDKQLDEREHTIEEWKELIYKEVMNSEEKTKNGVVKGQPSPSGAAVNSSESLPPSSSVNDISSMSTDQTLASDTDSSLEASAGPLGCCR
Fer(h), sequence (P16591 whole entry): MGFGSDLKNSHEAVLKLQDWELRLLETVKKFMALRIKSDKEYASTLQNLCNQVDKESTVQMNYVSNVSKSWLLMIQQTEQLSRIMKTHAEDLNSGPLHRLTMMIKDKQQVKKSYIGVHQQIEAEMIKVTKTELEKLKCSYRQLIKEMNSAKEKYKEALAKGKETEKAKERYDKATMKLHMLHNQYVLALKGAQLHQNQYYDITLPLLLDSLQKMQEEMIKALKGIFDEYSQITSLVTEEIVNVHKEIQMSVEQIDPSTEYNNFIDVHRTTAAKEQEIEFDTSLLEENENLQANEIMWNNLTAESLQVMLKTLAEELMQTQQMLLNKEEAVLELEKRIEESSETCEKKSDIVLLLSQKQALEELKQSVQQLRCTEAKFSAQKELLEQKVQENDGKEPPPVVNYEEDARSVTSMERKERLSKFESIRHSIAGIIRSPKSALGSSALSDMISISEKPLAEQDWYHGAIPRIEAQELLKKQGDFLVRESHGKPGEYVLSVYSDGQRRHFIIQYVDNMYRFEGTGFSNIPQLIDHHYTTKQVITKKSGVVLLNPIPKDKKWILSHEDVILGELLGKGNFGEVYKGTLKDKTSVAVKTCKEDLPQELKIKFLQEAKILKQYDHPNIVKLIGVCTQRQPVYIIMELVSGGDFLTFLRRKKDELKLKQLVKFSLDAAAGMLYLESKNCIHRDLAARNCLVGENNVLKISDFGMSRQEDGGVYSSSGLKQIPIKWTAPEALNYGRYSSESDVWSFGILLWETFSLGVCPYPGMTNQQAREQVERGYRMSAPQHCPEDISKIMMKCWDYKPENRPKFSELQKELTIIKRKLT
EGFR(T790M)(h), sequence (P00533 25-1210 T790M): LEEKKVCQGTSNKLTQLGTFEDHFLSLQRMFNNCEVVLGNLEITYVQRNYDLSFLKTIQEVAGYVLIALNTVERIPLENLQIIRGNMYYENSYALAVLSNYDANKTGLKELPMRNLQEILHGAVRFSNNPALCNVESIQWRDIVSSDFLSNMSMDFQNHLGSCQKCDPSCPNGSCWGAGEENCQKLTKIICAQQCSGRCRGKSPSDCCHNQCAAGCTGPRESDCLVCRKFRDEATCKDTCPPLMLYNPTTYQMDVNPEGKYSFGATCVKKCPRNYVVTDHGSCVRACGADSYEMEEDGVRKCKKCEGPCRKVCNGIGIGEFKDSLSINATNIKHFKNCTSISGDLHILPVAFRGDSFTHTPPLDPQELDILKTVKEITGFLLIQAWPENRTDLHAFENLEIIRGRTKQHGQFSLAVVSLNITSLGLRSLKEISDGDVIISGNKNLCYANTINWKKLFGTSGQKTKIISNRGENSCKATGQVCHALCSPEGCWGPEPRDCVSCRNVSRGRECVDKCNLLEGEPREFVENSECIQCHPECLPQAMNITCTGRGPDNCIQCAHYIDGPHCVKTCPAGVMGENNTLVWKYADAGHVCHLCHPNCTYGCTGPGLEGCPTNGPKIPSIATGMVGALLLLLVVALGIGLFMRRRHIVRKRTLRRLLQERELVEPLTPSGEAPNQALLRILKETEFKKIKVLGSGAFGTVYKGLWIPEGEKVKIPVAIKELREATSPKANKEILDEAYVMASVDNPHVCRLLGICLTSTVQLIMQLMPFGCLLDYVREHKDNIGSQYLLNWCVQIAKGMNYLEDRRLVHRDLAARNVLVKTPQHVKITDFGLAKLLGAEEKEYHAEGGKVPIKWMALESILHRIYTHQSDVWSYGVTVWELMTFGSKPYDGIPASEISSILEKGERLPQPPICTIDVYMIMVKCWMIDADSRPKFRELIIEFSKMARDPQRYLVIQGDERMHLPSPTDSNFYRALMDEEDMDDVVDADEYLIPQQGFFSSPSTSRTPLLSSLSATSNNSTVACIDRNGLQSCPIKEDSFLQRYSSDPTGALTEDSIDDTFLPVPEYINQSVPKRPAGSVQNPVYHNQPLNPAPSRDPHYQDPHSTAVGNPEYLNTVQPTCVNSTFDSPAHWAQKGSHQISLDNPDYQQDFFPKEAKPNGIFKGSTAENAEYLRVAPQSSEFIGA
Flt4(h), sequence (P35916 25-1363): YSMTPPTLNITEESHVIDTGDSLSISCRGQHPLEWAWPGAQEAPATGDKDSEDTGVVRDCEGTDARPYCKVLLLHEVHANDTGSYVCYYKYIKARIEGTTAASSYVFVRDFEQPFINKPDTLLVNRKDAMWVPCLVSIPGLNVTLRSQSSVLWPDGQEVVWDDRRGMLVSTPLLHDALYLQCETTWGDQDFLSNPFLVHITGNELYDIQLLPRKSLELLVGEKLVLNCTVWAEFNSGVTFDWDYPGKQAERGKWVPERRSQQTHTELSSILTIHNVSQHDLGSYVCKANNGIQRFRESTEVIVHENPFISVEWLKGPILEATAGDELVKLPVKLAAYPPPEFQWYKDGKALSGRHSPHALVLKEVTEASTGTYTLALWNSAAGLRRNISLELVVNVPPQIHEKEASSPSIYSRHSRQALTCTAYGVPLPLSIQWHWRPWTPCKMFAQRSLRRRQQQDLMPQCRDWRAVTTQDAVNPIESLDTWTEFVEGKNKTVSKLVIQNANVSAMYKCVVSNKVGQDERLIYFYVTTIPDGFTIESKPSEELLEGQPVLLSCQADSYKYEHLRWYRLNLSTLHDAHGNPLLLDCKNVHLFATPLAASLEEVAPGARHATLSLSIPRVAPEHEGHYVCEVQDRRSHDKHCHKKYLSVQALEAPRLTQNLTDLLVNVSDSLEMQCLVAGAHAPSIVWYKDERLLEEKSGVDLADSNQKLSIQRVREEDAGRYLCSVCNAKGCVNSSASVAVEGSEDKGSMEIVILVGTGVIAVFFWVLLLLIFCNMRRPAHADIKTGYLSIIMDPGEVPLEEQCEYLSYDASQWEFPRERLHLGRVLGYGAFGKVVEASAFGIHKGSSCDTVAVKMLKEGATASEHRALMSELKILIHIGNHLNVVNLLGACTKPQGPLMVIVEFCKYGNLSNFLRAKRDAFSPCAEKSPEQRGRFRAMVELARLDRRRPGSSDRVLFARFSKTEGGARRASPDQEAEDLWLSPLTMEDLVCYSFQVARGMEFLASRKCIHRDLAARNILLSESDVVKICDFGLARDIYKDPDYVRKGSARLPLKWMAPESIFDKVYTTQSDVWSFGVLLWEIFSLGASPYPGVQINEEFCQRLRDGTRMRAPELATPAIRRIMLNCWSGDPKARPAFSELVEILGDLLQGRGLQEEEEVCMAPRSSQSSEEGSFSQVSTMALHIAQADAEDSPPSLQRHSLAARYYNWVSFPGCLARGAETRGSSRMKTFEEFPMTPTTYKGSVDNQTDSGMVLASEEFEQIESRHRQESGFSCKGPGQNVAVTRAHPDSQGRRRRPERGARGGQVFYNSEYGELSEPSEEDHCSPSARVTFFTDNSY

SMILES: CC(C)CCC(=O)[C@]1(O)C(O)=C(C(=O)C(C)C)C(=O)[C@H]1CCC(C)C [TH2, tetrahydroiso-cohumulone]
- kinase inhibition (EGFR(T790M)(h); 1 μg/ml): 106% of control
- kinase inhibition (EGFR(T790M)(h); 5 μg/ml): 104% of control
- kinase inhibition (EGFR(T790M)(h); 25 μg/ml): 104% of control
- kinase inhibition (EGFR(T790M)(h); 50 μg/ml): 100% of control
- kinase inhibition (EGFR(T790M)(h); 100 μg/ml): 102% of control
- kinase inhibition (EphB3(h); 1 μg/ml): 80% of control
- kinase inhibition (EphB3(h); 5 μg/ml): 71% of control
- kinase inhibition (EphB3(h); 25 μg/ml): 69% of control
- kinase inhibition (EphB3(h); 50 μg/ml): 62% of control
- kinase inhibition (EphB3(h); 100 μg/ml): 57% of control
- kinase inhibition (Fer(h); 1 μg/ml): 110% of control
- kinase inhibition (Fer(h); 5 μg/ml): 102% of control
- kinase inhibition (Fer(h); 25 μg/ml): 104% of control
- kinase inhibition (Fer(h); 50 μg/ml): 91% of control
- kinase inhibition (Fer(h); 100 μg/ml): 88% of control
- kinase inhibition (Flt3(h); 1 μg/ml): 107% of control
- kinase inhibition (Flt3(h); 5 μg/ml): 99% of control
- kinase inhibition (Flt3(h); 25 μg/ml): 109% of control
- kinase inhibition (Flt3(h); 50 μg/ml): 95% of control
- kinase inhibition (Flt3(h); 100 μg/ml): 84% of control
- kinase inhibition (Flt4(h); 1 μg/ml): 117% of control
- kinase inhibition (Flt4(h); 5 μg/ml): 113% of control
- kinase inhibition (Flt4(h); 25 μg/ml): 88% of control
- kinase inhibition (Flt4(h); 50 μg/ml): 80% of control
- kinase inhibition (Flt4(h); 100 μg/ml): 55% of control
- kinase inhibition (Fms(h); 1 μg/ml): 116% of control
- kinase inhibition (Fms(h); 5 μg/ml): 103% of control
- kinase inhibition (Fms(h); 25 μg/ml): 121% of control
- kinase inhibition (Fms(h); 50 μg/ml): 117% of control
- kinase inhibition (Fms(h); 100 μg/ml): 98% of control
- kinase inhibition (JNK3(h); 1 μg/ml): 110% of control
- kinase inhibition (JNK3(h); 5 μg/ml): 108% of control
- kinase inhibition (JNK3(h); 25 μg/ml): 80% of control
- kinase inhibition (JNK3(h); 50 μg/ml): 92% of control
- kinase inhibition (JNK3(h); 100 μg/ml): 88% of control
- kinase inhibition (SRPK2(h); 1 μg/ml): 105% of control
- kinase inhibition (SRPK2(h); 5 μg/ml): 104% of control
- kinase inhibition (SRPK2(h); 25 μg/ml): 99% of control
- kinase inhibition (SRPK2(h); 50 μg/ml): 91% of control
- kinase inhibition (SRPK2(h); 100 μg/ml): 88% of control
